The record followed here is patent US8865684B2, “Morpholin-4-ium 4 methoxyphenyl (morpholino) phosphinodithioate (GYY4137) as a novel vasodilator agent” (National University of Singapore, priority 2009, dated 2014).

The subject of one series is anesthetized rat. Kind of series: Blood pressure in the anesthetized rat. It counts as in vivo.
Series [1] concerns rat aortic vascular smooth muscle cells (A10). Kind of series: cAMP and cGMP in cultured vascular smooth muscle cells (ELISA). Particulars: 100 μmol/L, 45 minutes, isobutyl methylxanthine 300 μmol/L; control 11.3±1.4; n=6. It counts as cell-based. The text has this:
Normal rat aortic vascular smooth muscle cells (A10) were obtained from the American Type Culture Collection (ATCC, Manassas, Va.).
A general note: ELISA stands for enzyme-linked immunosorbent assay.

Series [2] is described as follows: H2S release in vitro, DTNB assay. It counts as physicochemical. Particulars: phosphate buffer.
For series [3] the following is noted: GYY4137 133 μmol/kg IV or IP; NaHS 20 μmol/kg IV; up to 180 minutes. As to the method: Blood (0.5 mL) was withdrawn at timed intervals, anticoagulated with heparin (50 U/mL), and centrifuged (2000 g, 20 minutes). […] The zinc acetate assay measures free H2S plus related species including HS^− (hydrosulfide anion) and S2^− (sulfide). Accordingly, results for plasma H2S reported herein indicate the sum total of these species. All experiments on intact animals were undertaken with the approval of the local National University of Singapore Institutional Animal Care and Use Committee.

In series [4] the test system is phenylephrine-precontracted rat aorta. Kind of series: tissue or blood.
Series [5] has as its system isolated perfused rat kidney. Kind of series: Isolated perfused rat kidney, perfusion pressure. As to the method: (§1) For experiments using perfused kidney or heart, Sprague-Dawley rats (male; weight, 230 to 270 g) were anesthetized as described above. […] In kidneys, dose-response curves (volumes <10 μL) were obtained for bolus-injected noradrenaline, angiotensin II, or U46619.

Series [6] has as its system Langendorff-perfused rat heart. Nature of the series: Langendorff-perfused rat heart. To be noted: at 30 minutes. On the procedure:
as §1

On to `C1CCC(N=C(NC23CC4CC(CC(C4)C2)C3)N2CCOCC2)CC1.Cl` [PNU37883A], for which, in the series with anesthetized rat (15 minutes after PNU37883A 26.2 μmol/kg IP, versus 105.6±3.5 before injection, n=5, P=0.053), the “blood pressure after PNU37883A” value was 117.2±3.7 mm Hg.

`C=C[C@@]1(C)CC(=O)[C@]2(O)[C@@]3(C)[C@@H](O)CCC(C)(C)[C@@H]3[C@H](O)[C@H](OC(C)=O)[C@@]2(C)O1` [forskolin] came in with a cAMP concentration in series [1] of 79.6 ± 1.6 nmol/L.

On to `S` [NaHS, sodium hydrosulfide], for which the “H2S release in the DTNB assay” value in series [2] was “instantaneous”. Moreover, the “plasma H2S (H2S, HS−, S2−) concentration” value in series [3] is “did not elevate”. In series [4], the “time course: response to a standard concentration of phenylephrine after drug” value is recorded as “did not reduce”, the “vasorelaxant effect after removal of the endothelium or exposure to L-NAME or ODQ” value was “reduced” and the “vasorelaxant effect in presence of KATP channel blockers (glibenclamide or PNU37883A)” value was “reduced”. Further, in series [4] (Rattus norvegicus, phenylephrine-precontracted, read-out: EC50, relaxation of aortic rings), the EC50 (commonly the concentration that produces a half-maximal response) amounted to 274 ± 22.2 µM. For the same compound, the Emax (as a rule, the size of the effect at its maximum, as opposed to the concentration needed) in series [4] (Rattus norvegicus, phenylephrine-precontracted, read-out: Emax, relaxation of aortic rings) amounted to 63.4 ± 3.3%. In addition, in series [4] (concentration used for time course experiments), the “approximate EC70” value was approximately 300 µM. In addition, in series [5] (bolus 10 nmol, n=10), the “transient fall in perfusion pressure” value is 10.2±2.8 mm Hg. For the same compound, in series [5] (bolus 5 μmol, n=8), the “fall in perfusion pressure (biphasic response)” value worked out at 11.6±4.5 mm Hg and the “rise in perfusion pressure (biphasic response)” value is listed as 22.7±6.7 mm Hg. Also, the “reduction of cardiac contractility (left ventricular diastolic pressure)” value in series [6] (100 μmol/L) was 42.0±7.8%. In series [6] (NaHS 100 μmol/L), the “reduction of heart rate” value is reported as 53.2±6.6%. Further, in the series on anesthetized rat (NaHS 2.5 to 20 μmol/kg IV, GYY4137 26.6 to 133 μmol/kg IV), the “effect on blood pressure” value is “immediate, transient (10 to 30 seconds), and dose-related falls”.
